Data set [1] relates to HCT-116. Description: Cytotoxicity against human HCT116 cells assessed as reduction in cell viability incubated for 72 hrs by MTT assay. Format: functional, cell-based. The settings on record: HCT-116, 72 h. In general terms: Tetrazolium dyes change colour on reduction, which living cells bring about.
Data set [2] relates to HL-60. The data set can be described thus: Cytotoxicity against human HL60 cells assessed as reduction in cell viability incubated for 72 hrs by MTT assay. The settings on record: HL-60, 72 h. Format: functional, cell-based.
The test system of data set [3] is OVCAR-8. Description: Cytotoxicity against human OVCAR8 cells assessed as reduction in cell viability incubated for 72 hrs by MTT assay. Format: functional, cell-based. The settings on record: OVCAR-8, 72 h.
Data set [4] concerns SF-295. Description: Cytotoxicity against human SF295 cells assessed as reduction in cell viability incubated for 72 hrs by MTT assay. It is filed as functional, cell-based. The settings on record: SF-295, 72 h.
Data set [5] relates to OVCAR-8. Description: Cytotoxicity against human OVCAR8 cells assessed as reduction in cell viability at 1 to 4 uM measured upto 98 hrs by xcCELLigence RTCA analysis. Format: functional, cell-based.
In data set [6] the test system is OVCAR-8. Description: Cell cycle arrest in human OVCAR8 cells assessed as accumulation at G0/G1 phase at 5 uM incubated for 24 hrs by propidium iodide staining based flow cytometry (reference value: 67.06 +/- 1.42%). It is filed as functional. A general note: A flow cytometer gives signals particle by particle.
The subject of data set [7] is OVCAR-8. Description: Cell cycle arrest in human OVCAR8 cells assessed as accumulation at G0/G1 phase at 10 uM incubated for 24 hrs by propidium iodide staining based flow cytometry (reference value: 67.06 +/- 1.42%). Format: functional.
Data set [8] has as its system OVCAR-8. The data set can be described thus: Cell cycle arrest in human OVCAR8 cells assessed as accumulation at S phase at 5 uM incubated for 24 hrs by propidium iodide staining based flow cytometry (reference value: 7.1 +/- 0.86%). Format: functional.
The test system of data set [9] is OVCAR-8. Description: Cell cycle arrest in human OVCAR8 cells assessed as accumulation at S phase at 10 uM incubated for 24 hrs by propidium iodide staining based flow cytometry (reference value: 7.1 +/- 0.86%). It is filed as functional.
Data set [10] concerns OVCAR-8. The data set can be described thus: Cell cycle arrest in human OVCAR8 cells assessed as accumulation at G2/M phase at 5 uM incubated for 24 hrs by propidium iodide staining based flow cytometry (reference value: 25.78 +/- 0.71%). It is filed as functional.
Data set [11] relates to OVCAR-8. Description: Cell cycle arrest in human OVCAR8 cells assessed as accumulation at G2/M phase at 10 uM incubated for 24 hrs by propidium iodide staining based flow cytometry (reference value: 25.78 +/- 0.71%). Format: functional.
Data set [12] concerns OVCAR-8. Description: Cytotoxicity against human OVCAR8 cells assessed as reduction in cell viability at 0.05 uM measured upto 98 hrs by xcCELLigence RTCA analysis. Format: functional, cell-based.
In data set [13] the test system is OVCAR-8. The data set can be described thus: Cell cycle arrest in human OVCAR8 cells assessed as accumulation at G0/G1 phase at 0.05 uM incubated for 24 hrs by propidium iodide staining based flow cytometry (reference value: 67.06 +/- 1.42%). It is filed as functional.
Data set [14] has as its system OVCAR-8. Description: Cell cycle arrest in human OVCAR8 cells assessed as accumulation at S phase at 0.05 uM incubated for 24 hrs by propidium iodide staining based flow cytometry (reference value: 7.1 +/- 0.86%). It is filed as functional.
Data set [15] deals with OVCAR-8. Description: Cell cycle arrest in human OVCAR8 cells assessed as accumulation at G2/M phase at 0.05 uM incubated for 24 hrs by propidium iodide staining based flow cytometry (reference value: 25.78 +/- 0.71%). Format: functional.
The subject of data set [16] is OVCAR-8. The data set can be described thus: Induction of apoptosis in human OVCAR8 cells assessed as chromatin condensation at 0.03 uM incubated for 48 hrs by hematoxylin and eosin staining based […] analysis. It is filed as functional, cell-based.
For data set [17], the system named is OVCAR-8. Description: Induction of apoptosis in human OVCAR8 cells assessed as reduction in cell volume at 0.03 uM incubated for 48 hrs by hematoxylin and eosin staining based […] analysis. It is filed as functional.
The test system of data set [18] is OVCAR-8. The data set can be described thus: Induction of apoptosis in human OVCAR8 cells assessed as nuclear fragmentation at 0.03 uM incubated for 48 hrs by hematoxylin and eosin staining based […] analysis. It is filed as functional, cell-based.
The subject of data set [19] is OVCAR-8. Description: Induction of apoptosis in human OVCAR8 cells assessed as reduction in cell viability at 0.03 uM incubated for 48 hrs by acridine orange and ethidium bromide dye based fluorescence microscopy analysis. Format: functional.
The subject of data set [20] is OVCAR-8. Description: Induction of apoptosis in human OVCAR8 cells assessed as increase in apoptotic cells at 0.03 uM incubated for 48 hrs by acridine orange and ethidium bromide dye based fluorescence microscopy analysis. It is filed as functional, cell-based.
Data set [21] concerns Lytechinus variegatus. Description: Antimitotic activity against sea urchin eggs assessed as inhibition of egg development at blastulation stage. Format: functional, organism-based.
The nature of data set [22]: Cytotoxicity against human PBMC assessed as cell viability at 10 ug/ml incubated for 72 hrs by trypan blue dye based assay. Conditions: read-out: Activity.
The subject of data set [23] is Lytechinus variegatus. The data set can be described thus: Antimitotic activity against sea urchin eggs assessed as inhibition of development at second cleavage. Format: functional, organism-based.
The subject of data set [24] is Lytechinus variegatus. Description: Antimitotic activity against sea urchin eggs assessed as inhibition of egg development at first cleavage. It is filed as functional, organism-based.
In data set [25] the test system is OVCAR-8. Description: Cytotoxicity against human OVCAR8 cells assessed as reduction in cell viability measured upto 98 hrs by xcCELLigence RTCA analysis. It is filed as functional, cell-based.
In data set [26] the test system is OVCAR-8. The data set can be described thus: Cell cycle arrest in human OVCAR8 cells assessed as accumulation at G0/G1 phase at 2.5 uM incubated for 24 hrs by propidium iodide staining based flow cytometry (reference value: 67.06 +/- 1.42%). Format: functional.
Data set [27] has as its system OVCAR-8. Description: Cell cycle arrest in human OVCAR8 cells assessed as accumulation at G0/G1 phase at 2.5 uM in presence of PTX incubated for 24 hrs by propidium iodide staining based flow cytometry (reference value: 67.06 +/- 1.42%). Format: functional.
For data set [28], the system named is OVCAR-8. The data set can be described thus: Cell cycle arrest in human OVCAR8 cells assessed as accumulation at S phase at 2.5 uM incubated for 24 hrs by propidium iodide staining based flow cytometry (reference value: 7.1 +/- 0.86%). It is filed as functional.
Data set [29] relates to OVCAR-8. Description: Cell cycle arrest in human OVCAR8 cells assessed as accumulation at S phase at 2.5 uM in presence of PTX incubated for 24 hrs by propidium iodide staining based flow cytometry (reference value: 7.1 +/- 0.86%). It is filed as functional.
Data set [30] deals with OVCAR-8. The data set can be described thus: Cell cycle arrest in human OVCAR8 cells assessed as accumulation at G2/M phase at 2.5 uM incubated for 24 hrs by propidium iodide staining based flow cytometry (reference value: 25.78 +/- 0.71%). It is filed as functional.
Data set [31] relates to OVCAR-8. Description: Cell cycle arrest in human OVCAR8 cells assessed as accumulation at G2/M phase at 2.5 uM in presence of PTX incubated for 24 hrs by propidium iodide staining based flow cytometry (reference value: 25.78 +/- 0.71%). It is filed as functional.
In data set [32] the test system is MCF7. Description: Cell cycle arrest in human MCF7 cells assessed as increase in accumulation at G2/M phase at 8 uM incubated for 24 hrs by propidium iodide staining based flow cytometry relative to control. Format: functional.
Data set [33] concerns OVCAR-8. The data set can be described thus: Induction of apoptosis in human OVCAR8 cells assessed as reduction in cell viability incubated for 48 hrs by acridine orange and ethidium bromide dye based fluorescence microscopy analysis. It is filed as functional.
Data set [34] deals with OVCAR-8. Description: Induction of apoptosis in human OVCAR8 cells assessed as chromatin condensation at 20 to 40 uM incubated for 48 hrs by hematoxylin and eosin staining based […] analysis. Format: functional, cell-based.
Data set [35] concerns OVCAR-8. The data set can be described thus: Induction of apoptosis in human OVCAR8 cells assessed as increase in apoptotic cells incubated for 48 hrs by acridine orange and ethidium bromide dye based fluorescence microscopy analysis. It is filed as functional, cell-based.
For data set [36], the system named is OVCAR-8. Description: Induction of apoptosis in human OVCAR8 cells assessed as increase in apoptotic cells at 0.6 uM incubated for 48 hrs by acridine orange and ethidium bromide dye based fluorescence microscopy analysis. Format: functional, cell-based.
Data set [37] deals with OVCAR-8. Description: Induction of apoptosis in human OVCAR8 cells assessed as reduction in cell viability at 0.6 uM incubated for 48 hrs by acridine orange and ethidium bromide dye based fluorescence microscopy analysis. It is filed as functional.

Structures are written as SMILES. Activity calls are given as the source filed them. The calls are words filed in the database; no cut-off is given here.

As for `COc1ccc2c(c1)OC1c3cc(OC)c(OC)cc3OCC21` (racemic), the IC50 (usually the concentration that gives 50% inhibition) amounted to 11400 nM in data set [1], 760 nM in data set [2], 5930 nM in data set [3] and 14000 nM in data set [4]. Moreover, the result in [5] was inactive. Moreover, the Activity in data set [6] is 52.61%; in data set [7] it was 46.72%; in [8] it was 10.02%; in data set [9], 10.93%; in [10] it was 37.16%; in data set [11], 42.06%.
As to `CC(=O)O[C@H]1C(=O)[C@@]2(C)[C@H]([C@H](OC(=O)c3ccccc3)[C@]3(O)C[C@H](OC(=O)[C@H](O)[C@@H](NC(=O)c4ccccc4)c4ccccc4)C(C)=C1C3(C)C)[C@]1(OC(C)=O)CO[C@@H]1C[C@@H]2O` [PACLITAXEL], the outcome in data set [12], in data set [16], in data set [17], in [18], in [19] and in [20] was Active. The results for the Activity in data set [13], in data set [14] and in [15] were 34.28%, 15.72% and 49.97%, respectively.
Take `COc1ccc2c(c1)O[C@@H]1c3cc(OC)c(OC)cc3OC[C@H]21`: the IC50 was 2420 nM in data set [1]; 200 nM in [2]; 10.7 nM in data set [21]; 12.3 nM in data set [23]; 7.94 nM in [24]; 1790 nM in [3]. The IC50 in [4] was 3610 nM. The viability at 72 h, 10 ug/ml in data set [22] came to 81%. Further, the Activity entry in data set [25] is “Dose-dependent effect”; in data set [6], 15.83%; in data set [7], 10.84%; in data set [26], 58.16%; in [27], 10.98%; in data set [8] it was 8.76%. Also, the Activity in data set [9] stood at 9.92%; in data set [28], 9.1%; in data set [29], 10.39%; in data set [10], 75.24%; in [11], 79.13%; in [30], 32.71%. The Activity is 78.62% in data set [31], 32% in data set [32], “Dose-dependent effect” in data set [33] and “Dose-dependent effect” in data set [35]. For the same compound, the outcome in data set [34] was Active.
Consider `COc1ccc2c(c1)O[C@H]1c3cc(OC)c(OC)cc3OC[C@@H]21`, for which the IC50 in data set [1] was determined as 38500 nM; in [2], 82800 nM; in [3], 82800 nM; in [4], 32800 nM.
Take `COc1cccc2c1C(=O)c1c(O)c3c(c(O)c1C2=O)C[C@@](O)(C(=O)CO)C[C@@H]3O[C@H]1C[C@H](N)[C@H](O)[C@H](C)O1` [DOXORUBICIN]: the IC50 in [2] is 40 nM; in [4] it was 80 nM. In addition, the result in [36] and in [37] was Active.

The record behind these values is ChEMBL document CHEMBL4616708, “Antitumor Potential of the Isoflavonoids (+)- and (-)-2,3,9-Trimethoxypterocarpan: Mechanism-of-Action Studies” (ACS Med Chem Lett, 2020).
